Reference: patent publication US20260274892A1, “MACROCYCLIC BROAD SPECTRUM ANTIBIOTICS” (RQx Pharmaceuticals, Inc., priority 2017, published 2026)

How the values were obtained:
[1] = system: Methicillin Resistant Staphylococcus aureus strain USA 200; assay: Minimum inhibitory concentration (MIC), CLSI broth micro-dilution, S. aureus; assay type: cell-based; details: Staphylococcus aureus, MRSA / USA200; Table 6; MRSA USA 200; cation adjusted Mueller Hinton Broth + 0.002% Tween-80; 35° C., 22 hours
In short: (§1)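 Antibacterial potency is measured as MIC by the CLSI broth dilution method. Bacteria at OD600 0.0005 in Tween-80-supplemented cation-adjusted Mueller Hinton broth face ten twofold compound dilutions for 22 h at 35° C.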

[2] = system: Escherichia coli ATCC 25922; assay: Minimum inhibitory concentration (MIC), CLSI broth micro-dilution, E. coli; assay type: cell-based; details: Escherichia coli, ATCC25922, 22 h, Table 6, cation adjusted Mueller Hinton Broth + 0.002% Tween-80, 35° C.
In short: as §1

MIC [1] [µM] | MIC [2] [µM] | Compound
0.13 | 4.1 | CCCCCCCCc1ccc(C(=O)N[C@@H](CCC(=O)NC(CO)CO)C(=O)N(C)[C@@H]2C(=O)N[C@@H](C)C(=O)N[C@H](C(=O)NCC#N)Cc3ccc(OCCN)c(c3)-c3cc2ccc3OCCN)c(C)c1 (racemic) [Compound 448, rac-(2S)-N′-[2-hydroxy-1-(hydroxymethyl)ethyl]-N-methyl-2-[(2-methyl-4-octyl-benzoyl)amino]-N-[rac-(7S,10S,13S)-3,18-bis(2-aminoethoxy)-13-(cyanomethylcarbamoyl)-10-methyl-8,11-dioxo-9,12-diazatricyclo[13.3.1.12,6]icosa-1(19),2,4,6(20),15,17-hexaen-7-yl]pentanediamide]
0.031 | 0.48 | Cc1nc(-c2ccc(OC3CCCCC3)cc2)nc(C)c1C(=O)N[C@@H](CCNS(N)(=O)=O)C(=O)N(C)[C@@H]1C(=O)N[C@@H](C)C(=O)N[C@H](C(=O)NCC#N)Cc2ccc(OCCN)c(c2)-c2cc1ccc2OCCN [Compound 500, (8S,11S,14S)-3,18-bis(2-aminoethoxy)-N-(cyanomethyl)-14-[[(2S)-2-[[2-[4-(cyclohexoxy)phenyl]-4,6-dimethyl-pyrimidine-5-carbonyl]amino]-4-(sulfamoylamino)butanoyl]-methyl-amino]-11-methyl-10,13-dioxo-9,12-diazatricyclo[13.3.1.12,6]icosa-1(18),2(20),3,5,15(19),16-hexaene-8-carboxamide]
0.063 | 4 | Cc1nc(-c2ccc(C(C)(C)C)cc2)nc(C)c1C(=O)N[C@@H](C)C(=O)N[C@@H](CCN)C(=O)N(C)[C@@H]1C(=O)N[C@@H](C)C(=O)N[C@H](C(=O)NCC#N)Cc2ccc(OCCN)c(c2)-c2cc1ccc2OCCN (racemic) [Compound 464, rac-(8S,11S,14S)-3,18-bis(2-aminoethoxy)-N-(cyanomethyl)-11-methyl-14-[methyl-[rac-(2S)-4-amino-2-[[rac-(2S)-2-[[2-(4-tert-butylphenyl)-4,6-dimethyl-pyrimidine-5-carbonyl]amino]propanoyl]amino]butanoyl]amino]-10,13-dioxo-9,12-diazatricyclo[13.3.1.12,6]icosa-1(18),2(20),3,5,15(19),16-hexaene-8-carboxamide]
0.0062 | 0.099 | Cc1nc(-c2ccc(CCC(C)C)cc2)ncc1C(=O)N[C@@H](CCN)C(=O)N(C)[C@@H]1C(=O)N[C@@H](C)C(=O)N[C@H](C(=O)NCC#N)Cc2ccc(OCCN)c(c2)-c2cc1ccc2OCCN (racemic) [Compound 220, rac-(8S,11S,14S)-3,18-bis(2-aminoethoxy)-N-(cyanomethyl)-11-methyl-14-[methyl-[rac-(2S)-4-amino-2-[[2-(4-isopentylphenyl)-4-methyl-pyrimidine-5-carbonyl]amino]butanoyl]amino]-10,13-dioxo-9,12-diazatricyclo[13.3.1.12,6]icosa-1(18),2(20),3,5,15(19),16-hexaene-8-carboxamide]
0.023 | 1 | C[C@@H]1NC(=O)[C@@H](N(C)C(=O)[C@H](CCN)NC(=O)c2c(N)nc(-c3ccc(C(C)(C)C)cc3)nc2N)c2ccc(OCCN)c(c2)-c2cc(ccc2OCCN)C[C@@H](C(=O)NCC#N)NC1=O (racemic) [Compound 429, rac-(8S,11S,14S)-3,18-bis(2-aminoethoxy)-N-(cyanomethyl)-11-methyl-14-[methyl-[rac-(2S)-4-amino-2-[[4,6-diamino-2-(4-tert-butylphenyl)pyrimidine-5-carbonyl]amino]butanoyl]amino]-10,13-dioxo-9,12-diazatricyclo[13.3.1.12,6]icosa-1(18),2(20),3,5,15(19),16-hexaene-8-carboxamide]
0.017 | 0.1 | CCCCc1ccc(-c2ccc(C(=O)N[C@@H](CCN)C(=O)N(C)[C@@H]3C(=O)N[C@@H](C)C(=O)N[C@H](C(=O)NCC#N)Cc4ccc(OCCN)c(c4)-c4cc3ccc4OCCN)c(C)n2)cc1 (racemic) [Compound 207, rac-(8S,11S,14S)-3,18-bis(2-aminoethoxy)-N-(cyanomethyl)-11-methyl-14-[methyl-[rac-(2S)-4-amino-2-[[6-(4-butylphenyl)-2-methyl-pyridine-3-carbonyl]amino]butanoyl]amino]-10,13-dioxo-9,12-diazatricyclo[13.3.1.12,6]icosa-1(18),2(20),3,5,15(19),16-hexaene-8-carboxamide]
0.016 | 0.13 | CCCCCCOc1ccc(-c2ncc(C(=O)N[C@@H](CCN)C(=O)N(C)[C@@H]3C(=O)N[C@@H](C)C(=O)N[C@H](C(=O)NCC#N)Cc4ccc(OCCN)c(c4)-c4cc3ccc4OCCN)c(C)n2)cc1 (racemic) [Compound 248, rac-(8S,11S,14S)-3,18-bis(2-aminoethoxy)-N-(cyanomethyl)-11-methyl-14-[methyl-[rac-(2S)-4-amino-2-[[2-(4-hexoxyphenyl)-4-methyl-pyrimidine-5-carbonyl]amino]butanoyl]amino]-10,13-dioxo-9,12-diazatricyclo[13.3.1.12,6]icosa-1(18),2(20),3,5,15(19),16-hexaene-8-carboxamide]
0.033 | 0.2 | CCc1ccc(C#Cc2nc(C)c(C(=O)N[C@@H](CCN)C(=O)N(C)[C@@H]3C(=O)N[C@@H](C)C(=O)N[C@H](C(=O)NCC#N)Cc4ccc(OCCN)c(c4)-c4cc3ccc4OCCN)c(C)n2)cc1 (racemic) [Compound 307, rac-(8S,11S,14S)-3,18-bis(2-aminoethoxy)-N-(cyanomethyl)-11-methyl-14-[methyl-[rac-(2S)-4-amino-2-[[2-[2-(4-ethylphenyl)ethynyl]-4,6-dimethyl-pyrimidine-5-carbonyl]amino]butanoyl]amino]-10,13-dioxo-9,12-diazatricyclo[13.3.1.12,6]icosa-1(18),2(20),3,5,15(19),16-hexaene-8-carboxamide]
0.016 | 0.25 | Cc1cc(-c2ccc(C(C)(C)C)cc2)nc(N)c1C(=O)N[C@@H](CCN)C(=O)N(C)[C@@H]1C(=O)N[C@@H](C)C(=O)N[C@H](C(=O)NCC#N)Cc2ccc(OCCN)c(c2)-c2cc1ccc2OCCN (racemic) [Compound 414, rac-(8S,11S,14S)-3,18-bis(2-aminoethoxy)-N-(cyanomethyl)-11-methyl-14-[methyl-[rac-(2S)-4-amino-2-[[2-amino-6-(4-tert-butylphenyl)-4-methyl-pyridine-3-carbonyl]amino]butanoyl]amino]-10,13-dioxo-9,12-diazatricyclo[13.3.1.12,6]icosa-1(18),2(20),3,5,15(19),16-hexaene-8-carboxamide]
0.032 | 4.1 | CCCCCCCCc1ccc(C(=O)N[C@@H](CCC(=O)NCCO)C(=O)N(C)[C@@H]2C(=O)N[C@@H](C)C(=O)N[C@H](C(=O)NCC#N)Cc3ccc(OCCN)c(c3)-c3cc2ccc3OCCN)c(C)c1 (racemic) [Compound 446, rac-(2S)-N′-(2-hydroxyethyl)-N-methyl-2-[(2-methyl-4-octyl-benzoyl)amino]-N-[rac-(7S,10S,13S)-3,18-bis(2-aminoethoxy)-13-(cyanomethylcarbamoyl)-10-methyl-8,11-dioxo-9,12-diazatricyclo[13.3.1.12,6]icosa-1(19),2,4,6(20),15,17-hexaen-7-yl]pentanediamide]
0.012 | 0.094 | Cc1nc(-c2ccc(CC3CCCC3)cc2)nc(C)c1C(=O)N[C@@H](CCN)C(=O)N(C)[C@@H]1C(=O)N[C@@H](C)C(=O)N[C@H](C(=O)NCC#N)Cc2ccc(OCCN)c(c2)-c2cc1ccc2OCCN (racemic) [Compound 275, rac-(8S,11S,14S)-3,18-bis(2-aminoethoxy)-N-(cyanomethyl)-11-methyl-14-[methyl-[rac-(2S)-4-amino-2-[[2-[4-(cyclopentylmethyl)phenyl]-4,6-dimethyl-pyrimidine-5-carbonyl]amino]butanoyl]amino]-10,13-dioxo-9,12-diazatricyclo[13.3.1.12,6]icosa-1(18),2(20),3,5,15(19),16-hexaene-8-carboxamide]
0.061 | 1.6 | CCCCCCCc1ccc(C(=O)N[C@@H](CCN)C(=O)N[C@@H]2C(=O)N[C@@H](CC)C(=O)N[C@H](C(=O)NCC#N)Cc3ccc(OCCN)c(c3)-c3cc2ccc3OCCN)c(C)c1 (racemic) [Compound 480, rac-(8S,11S,14S)-3,18-bis(2-aminoethoxy)-N-(cyanomethyl)-11-ethyl-10,13-dioxo-14-[[rac-(2S)-4-amino-2-[(4-heptyl-2-methyl-benzoyl)amino]butanoyl]amino]-9,12-diazatricyclo[13.3.1.12,6]icosa-1(18),2(20),3,5,15(19),16-hexaene-8-carboxamide]

Compound | MIC [1] [µM] | MIC [2] [µM]
CCCCOc1ccc(-c2ncc(C(=O)N[C@@H](CCN)C(=O)N(C)[C@@H]3C(=O)N[C@@H](C)C(=O)N[C@H](C(=O)NCC#N)Cc4ccc(OCCN)c(c4)-c4cc3ccc4OCCN)c(C)n2)c(C)c1 (racemic) [Compound 242, rac-(8S,11S,14S)-3,18-bis(2-aminoethoxy)-N-(cyanomethyl)-11-methyl-14-[methyl-[rac-(2S)-4-amino-2-[[2-(4-butoxy-2-methyl-phenyl)-4-methyl-pyrimidine-5-carbonyl]amino]butanoyl]amino]-10,13-dioxo-9,12-diazatricyclo[13.3.1.12,6]icosa-1(18),2(20),3,5,15(19),16-hexaene-8-carboxamide] | 0.016 | 0.39
